Patent US20030232986A1, “Inhibitors of caspases” (Vertex Pharmaceuticals Incorporated, priority 1998, published 2003)
Where two headings read alike, the source gives them in different places. Where a SMILES comes first, the peptide text is derived from it. The star is where a group is joined. Isovaleryl = CC(C)CC(=O)*; 4Abz = Nc1ccc(C(=O)O)cc1

Key:
Caspase-1 = target: T1, Caspase-1 (Homo sapiens, UniProt P29466); assay: Caspase-1 enzyme inhibition (Ki); format: biochemical
T1 sequence (P29466 120-297 limits assumed): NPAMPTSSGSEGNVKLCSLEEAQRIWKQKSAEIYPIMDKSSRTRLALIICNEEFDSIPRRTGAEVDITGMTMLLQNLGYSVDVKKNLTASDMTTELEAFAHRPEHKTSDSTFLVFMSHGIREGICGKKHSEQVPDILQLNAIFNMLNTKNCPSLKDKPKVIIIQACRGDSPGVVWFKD
T1 sequence (P29466 317-404 limits assumed): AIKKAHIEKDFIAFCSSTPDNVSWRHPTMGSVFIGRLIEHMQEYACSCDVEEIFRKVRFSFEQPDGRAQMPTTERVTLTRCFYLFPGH
Procedure, shortened: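 Ki obtained by fitting rate versus inhibitor concentration to the Morrison tight-binding equation for competitive inhibitors, with pNA release read at 405 nm at 37 °C. Substrate Suc-YVAD-pNA (80 μM final) added after 15 min enzyme–inhibitor preincubation in Tris pH 7.5 buffer with DTT and CHAPS.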

[1] = test system: Human Peripheral Blood Mononuclear Cells (PBMC), mature IL-1β; assay: PBMC cell assay: IL-1β assay with human peripheral blood mononuclear cells; format: cell-based; details: LPS-stimulated human PBMC, mature IL-1β in supernatant by ELISA
Procedure, shortened: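 Donor PBMC (suspension at 6×10^6 cells/ml) or adherent-enriched monocytes were stimulated with 5 ng/ml LPS (final) alongside 5–6 compound dilutions bracketing the ICE Ki, at 0.1% DMSO final, for 16–18 hr at 37° C, 5% CO2. Mature IL-1β in supernatants was measured by ELISA; IC50 was calculated relative to LPS-only controls.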

[2] = test system: Human whole blood, IL-1β production; assay: Whole blood assay for IL-1β production; format: cell-based; details: LPS-stimulated whole blood, IL-1β by ELISA
Procedure, shortened: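 LPS-stimulated (5.0 ng/ml final) human whole blood incubated with test compound in saline (or plasma/PBS-5% DMSO for hydrophobic compounds) at 30° C for 16-18 hr. Plasma IL-1β then measured by ELISA at 1:200 dilution, against no-LPS, no-inhibitor and vehicle controls.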

[3] = substrate Suc-YVAD-pNA 80 μM, 37° C., pH 7.5

SMILES	Ki (Caspase-1; [3])	IC50 [1]	IC50 [2]	Ki (Caspase-1)
O=C[C@H](CC(=O)O)NC(=O)[C@@H]1CCCN1C(=O)[C@H](Cc1cccnc1)NC(=O)c1cc(Cl)c(O)c(Cl)c1 [Example 20n]	< 10 nM	500 to 1000 nM	< 2500 nM	–
CC(NC(=O)c1ccc(N)c(Cl)c1)C(=O)N1N=CC(C)C1C(=O)NC(C=O)CC(=O)O (stereo not drawn) [Example 23g, 3-({2-[2-(4-Amino-3-chloro-benzoylamino)-propionyl]-4-methyl-3,4-dihydro-2H-pyrazole-3-carbonyl}-amino)-4-oxo-butyric acid]	< 10 nM	1000 to 2000 nM	< 2500 nM	–
CC(C)[C@H](NC(=O)c1cnnc2ccccc12)C(=O)N1CCC[C@H]1C(=O)N[C@H](C=O)CC(=O)O [Example 5s]	10 to 1000 nM	500 to 1000 nM	> 7500 nM	10 to 1000 nM
CSC[C@H](NC(=O)c1cc(Cl)c(O)c(Cl)c1)C(=O)N1CCC[C@H]1C(=O)N[C@H](C=O)CC(=O)O [Example 20o]	< 10 nM	< 500 nM	< 2500 nM	–
C[C@H](NC(=O)c1cnc2ccccc2n1)C(=O)N1CCC[C@H]1C(=O)N[C@H](C=O)CC(=O)O [Example 122j, 4-Oxo-3-[(1-{2-[(quinoxaline-2-carbonyl)-amino]-propionyl}-pyrrolidine-2-carbonyl) -amino]-butyric acid]	10 to 1000 nM	> 2000 nM	2500 to 7500 nM	–
CC(C)CC(=O)Nc1ccc(C(=O)N[C@@H](C)C(=O)N2CCC[C@H]2C(=O)N[C@H](C=O)CC(=O)O)cc1 [Example 7v] ({Isovaleryl-4Abz}-Ala-Pro-Asp-aldehyde)	10 to 1000 nM	> 2000 nM	< 2500 nM	–
C[C@H](NC(=O)c1nccc2ccccc12)C(=O)N1CCN(C(N)=O)C[C@H]1C(=O)N[C@H](C=O)CC(=O)O [Example 18c]	10 to 1000 nM	500 to 1000 nM	< 2500 nM	–
CC(C)NC(=O)N[C@@H]1C[C@@H](C(=O)N[C@H](C=O)CC(=O)O)N(C(=O)[C@@H](NC(=O)c2nccc3ccccc23)C(C)C)C1 [Example 9c]	< 10 nM	< 500 nM	< 2500 nM	–
CS(=O)(=O)C[C@H](NC(=O)c1nccc2ccccc12)C(=O)N1CCC[C@H]1C(=O)N[C@H](C=O)CC(=O)O [Example 20r, 3-[(1-{2-[(isoquinoline-1-carbonyl)-amino]-3-methanesulfonyl-propionyl}-pyrrolidine-2-carbonyl)-amino]-4-oxo-butyric acid]	10 to 1000 nM	500 to 1000 nM	2500 to 7500 nM	–
C[C@@H](O)[C@H](NC(=O)c1cc(Cl)c(O)c(Cl)c1)C(=O)N1CCC[C@H]1C(=O)N[C@H](C=O)CC(=O)O [Example 20l]	< 10 nM	500 to 1000 nM	< 2500 nM	–
COc1cc(C(=O)N[C@@H](C)C(=O)N2CCC[C@H]2C(=O)N[C@H](C=O)CC(=O)O)cc(Cl)c1O [Example 7o]	< 10 nM	< 500 nM	< 2500 nM	–
CC(C(=O)N[C@H](C(=O)N1CCC[C@H]1C(=O)N[C@H](C=O)CC(=O)O)C(C)C)c1ccc(C(=O)c2cccs2)cc1 (stereo partly drawn) [Example 5aj]	10 to 1000 nM	500 to 1000 nM	> 7500 nM	10 to 1000 nM
CCC(C)[C@H](NC(=O)c1ccc(N)c(Cl)c1)C(=O)N1CCC[C@H]1C(=O)N[C@H](C=O)CC(=O)O (stereo partly drawn) [Example 20q]	10 to 1000 nM	500 to 1000 nM	> 7500 nM	–
CC(C)[C@H](NC(=O)c1nccc2ccccc12)C(=O)N1C[C@H](c2ccccc2)C[C@H]1C(=O)N[C@H](C=O)CC(=O)O [Example 26h]	< 10 nM	< 500 nM	< 2500 nM	–
CC(C)[C@H](NC(=O)c1cccc2c1-c1ccccc1C2)C(=O)N1CCC[C@H]1C(=O)N[C@H](C=O)CC(=O)O [Example 5i]	< 10 nM	1000 to 2000 nM	> 7500 nM	< 10 nM
COc1ccc(C(=O)N[C@@H](C)C(=O)N2CCC[C@H]2C(=O)N[C@H](C=O)CC(=O)O)cc1C [Example 7p]	< 10 nM	> 2000 nM	2500 to 7500 nM	–
CS(=O)(=O)CC(NC(=O)c1cc(Cl)c(O)c(Cl)c1)C(=O)N1CCCC1C(=O)NC(C=O)CC(=O)O (stereo not drawn) [Example 20s, 3-({1-[2-(3,5-dichloro-4-hydroxy-benzoylamino)-3-methanesulfonyl-propionyl]-pyrrolidine-2-carbonyl}-amino)-4-oxo-butyric acid]	< 10 nM	1000 to 2000 nM	< 2500 nM	–
COc1cc(C(=O)N[C@@H](C)C(=O)N2CCC[C@H]2C(=O)N[C@H](C=O)CC(=O)O)ccc1N [Example 7l]	10 to 1000 nM	500 to 1000 nM	< 2500 nM	–
